This is an account of results in patent publication EP3720857B1, “2-OXO-5H-CHROMENO[4,3-B]PYRIDINES FOR USE IN THE TREATMENT OF HEPATITIS B” (Galapagos NV, priority 2017, dated 2019).

The test system of this experiment is hepatitis virus B (HBV) infection. The experiment can be described thus: HepG2 NTCP assay (HBcAg staining as marker of HBV infection). Type of experiment: cell-based. As to conditions: HepG2-NTCP cells infected with HBV, HBV core antigen (HBcAg) as marker of infection. An excerpt: The principle of the hepG2-NTCP assay is to measure the effect of a test compound on the inhibition of the hepatitis virus B (HBV) infection compared to a reference compound. To be able to infect the hepatocellular carcinoma cells (HepG2) with HBV, HepG2 cells were stably transfected with the Na+-taurocholate co-transporting polypeptide (NTCP) receptor, also referred to as Sodium/bile acid cotransporter (SLC10A1), which is necessary for HBV infection. In this assay the HBV core antigen (HBcAg) is used as a marker of HBV infection. Nuclei count is used as an indication for compound toxicity.
On day one, HepG2-NTCP cells ((Ni et al., 2014)) are seeded at 5000 cells in 50 µL per well in assay medium (DMEM high glucose supplemented with 10% non-heat inactivated (non HI) fetal bovine serum (FBS), 1% P/S, 1% L-glutamine and 1% MEM NEAA) in 384 well plate and incubated at 37°C, 5% CO2 overnight.
Compounds are prepared as 10 point serial dilutions using 1/3 dilution steps in 100% DMSO starting from 10 mM highest concentration, unless otherwise requested for very potent compounds, which started from 5mM or 1mM stock. Compounds are further diluted 1/500 in assay medium.
A negative control (vehicle: 24 wells with 0.2% DMSO) and positive control (24 wells with 100nM Myrcludex B (Cas no.: 406461-66-3), 0.2% DMSO and in 10 point DR) are included in the experiments.
On the second day, 40µl medium is removed from the cells with the plate washer (Select 405 microplate washer, Biotek). 15 µL of diluted compound series is transferred to the assay plate and cells are infected with 15 µL of HBV mix (HBV virus, 4%PEG, 1%DMSO in assay medium). The infection is performed in assay medium containing final concentration of 1% DMSO. The assay plate is incubated at 37°C, 5% CO2 overnight.
The next day, 30µl compound and HBV mix are removed from the assay plate with the plate washer and 30 µL of compound series diluted 1/500 in assay medium containing final concentration of 2.5% DMSO is added to the cell assay plate. The assay plate is incubated at 37°C, 5% CO2 for 5 days.
After 5 days of incubation, supernatant is removed from the cells with the plate washer. Cells are fixed with 50 µL of 3.7% formaldehyde added with the Well mate (Matrix technologies) and incubated for 30 min at room temperature. After fixation, cells are washed four times with phosphate buffer saline (1xPBS, 137mM NaCl, 10mM na2HPO4, 2.7mM KCl, 1.8mM KH2PO4 at pH7.4). The cells are finally subjected to HBc staining.
First, the assay plate is blocked with blocking buffer (2%FBS, 3% BSA, 0.2% TritonX100 in PBS) for 1 h at room temperature (optional to block overnight at 4°C).
After 4 washes of PBST (1XPBS + 0.05% Tween) with the plate washer, the assay plate is incubated with 30 µL diluted primary antibody (1/700 Rabbit anti-HBV core antigen, Dako, B0586 or 1/350 Rabbit anti HBV core antigen, Invitrogen, PA516368) in blocking buffer and incubated for 90 min at room temperature.
After 4 washes of PBST with the plate washer, the assay plate is incubated with 50 µL of secondary antibody (Donkey-anti-rabbit Alexa 488 antibody, Lifetechnologies A21206) 1/500 diluted in blocking buffer and incubated for 60 min at room temperature and in the dark.
The assay plate is washed 4 times with PBST on the plate washer and incubated with 50µL of DAPI (Sigma D9542, stock 5mg/mL) 1/10000 diluted in PBS for 15-30 min at room temperature and in the dark. The assay plate is now ready for read out on the InCell Analyzer 2200 (GE Healthcare).
Raw data are generated following read-out performed on InCell 2200 and are imported into the galapagos LIMS for automated calculation of percentage inhibition (PIN) and toxicity by nuclei count, using the control wells mentioned above, and creation of Dose Response curves. Table V. Hepg2 NTCP assay activity of illustrative compounds of the invention
As a reminder, the IC50 is the concentration at which inhibition is half-maximal. Lower therefore signals greater potency. In turn, `COCCCOc1cc2c(cc1Cl)-c1c(cc(C(=O)O)c(=O)n1C1CC1)C(C1(C#N)CC1)O2` (centres unmarked) [Compound 22, 9-chloro-5-(1-cyanocyclopropyl)-1-cyclopropyl-8-(3-methoxypropoxy) -2-oxo-5H-chromeno[4,3-b]pyridine-3-carboxylic acid] had an IC50 of 0.001 to 1 nM. Then `COCCCOc1cc2c(cc1Cl)-c1c(cc(C(=O)O)c(=O)n1C1CC(F)(F)C1)C(C(C)C)O2` (centres unmarked) [Compound 23, 9-chloro-1-(3,3-difluorocyclobuty 1)-5-isopropyl-8-(3-methoxypropoxy) -2-oxo-5H-chromeno[4,3-b]pyridine-3-carboxylic acid], with 1 to 20 nM; and `COCCCOc1cc2c(cc1C#N)-c1c(cc(C(=O)O)c(=O)n1C1CC1)C(C(C)C)O2` (centres unmarked) [Compound 24, 9-cyano-1-cyclopropyl-5-isopropyl-8-(3-methoxypropoxy) -2-oxo-5H-chromeno[4,3-b]pyridine-3-carboxylic acid], with 0.001 to 1 nM. `COCCOc1cc2c(cc1Cl)-c1c(cc(C(=O)O)c(=O)n1C1CC1)C(C1(C)COC1)O2` (centres unmarked) [Compound 25, 9-chloro-1-cyclopropyl-8-(2-methoxyethoxy)-5-(3-methyloxetan-3-yl)-2-oxo-5H-chromeno [4,3-b]pyridine-3-carboxylic acid] returned an IC50 of 0.001 to 1 nM.

Regarding `COCCCOc1cc2c(cc1F)-c1c(cc(C(=O)O)c(=O)n1C1CCC1)C(C1(C)COC1)O2` (centres unmarked) [Compound 26, 1-cyclobutyl-9-fluoro-8-(3-methoxypropoxy) -5-(3-methyloxetan-3-yl)-2-oxo-5H-chromeno[4,3-b]pyridine-3-carboxylic acid], the IC50 fell in the range of 0.001 to 1 nM. Next, `[2H]C1([2H])C(n2c3c(cc(C(=O)O)c2=O)C(C2(C)COC2)Oc2cc(OCCCOC)c(F)cc2-3)C1([2H])[2H]` (centres unmarked) [Compound 27, 9-fluoro-8-(3-methoxypropoxy) -5-(3-methyloxetan-3-yl)-2-oxo-1-(2,2,3,3-tetradeuteriocyclopropyl)-5H-chromeno[4,3-b]pyridine-3-carboxylic acid]: 0.001 to 1 nM. Turning to `COc1cc2c(cc1OCC1(C)COC1)OC(C(C)C)c1cc(C(=O)O)c(=O)n(C3CC3)c1-2` (centres unmarked) [Compound 28, 1-cyclopropyl-5-isopropyl-9-methoxy-8-[(3-methyloxetan-3-yl)methoxy]-2-oxo-5H-chromeno[4,3-b]pyridine-3-carboxylic acid], the IC50 lay in the range of 1 to 20 nM. Then `COc1cc2c(cc1OCC1CN(C)C(=O)O1)OC(C(C)C)c1cc(C(=O)O)c(=O)n(C3CC3)c1-2` (centres unmarked) [Compound 29, 1-cyclopropyl-5-isopropyl-9-methoxy-8-[(3-methyl-2-oxooxazolidin-5-yl)methoxy]-2-oxo-5H-chromeno[4,3-b]pyridine-3-carboxylic acid], with 1 to 20 nM; and `COc1cc2c(cc1OCCCC#N)OC(C(C)C)c1cc(C(=O)O)c(=O)n(C3CC3)c1-2` (centres unmarked) [Compound 30, 8-(3-cyanopropoxy)-1-cyclopropyl-5-isopropyl-9-methoxy-2-oxo-5H-chromeno[4,3-b]pyridine-3-carboxylic acid], with 1 to 20 nM. Turning to `COCCOc1cc2c(cc1OC)-c1c(cc(C(=O)O)c(=O)n1C1CC1)C(C(C)C)O2` (centres unmarked) [Compound 31, 1-cyclopropyl-5-isopropyl-9-methoxy-8-(2-methoxyethoxy)-2-oxo-5H-chromeno[4,3-b]pyridine-3-carboxylic acid], the IC50 was in the range of 1 to 20 nM. Then `COc1cc2c(cc1OCC1CN(S(C)(=O)=O)C1)OC(C(C)C)c1cc(C(=O)O)c(=O)n(C3CC3)c1-2` (centres unmarked) [Compound 32, 1-cyclopropyl-5-isopropyl-9-methoxy-8-[(1-methylsulfonylazetidin-3-yl)methoxy]-2-oxo-5H-chromeno[4,3-b]pyridine-3-carboxylic acid], with 1 to 20 nM. Next, `COc1cc2c(cc1OCC1COCCO1)OC(C(C)C)c1cc(C(=O)O)c(=O)n(C3CC3)c1-2` (centres unmarked) [Compound 33, 1-cyclopropyl-8-(1,4-dioxan-2-ylmethoxy)-5-isopropyl-9-methoxy-2-oxo-5H-chromeno[4,3-b]pyridine-3-carboxylic acid]: 1 to 20 nM; `COc1cc2c(cc1OCC1COC1)OC(C(C)C)c1cc(C(=O)O)c(=O)n(C3CC3)c1-2` (centres unmarked) [Compound 34, 1-cyclopropyl-5-isopropyl-9-methoxy-8-(oxetan-3-ylmethoxy)-2-oxo-5H-chromeno[4,3-b]pyridine-3-carboxylic acid]: 1 to 20 nM.

In turn, `COc1cc2c(cc1OCC1CNC(=O)O1)OC(C(C)C)c1cc(C(=O)O)c(=O)n(C3CC3)c1-2` (centres unmarked) [Compound 35, 1-cyclopropyl-5-isopropyl-9-methoxy-2-oxo-8-[(2-oxooxazolidin-5-yl)methoxy]-5H-chromeno[4,3-b]pyridine-3-carboxylic acid] displayed a half-inhibitory concentration (IC50) of 20 to 100 nM. Then `COc1cc2c(cc1OCCCO)OC(C(C)C)c1cc(C(=O)O)c(=O)n(C3CC3)c1-2` (centres unmarked) [Compound 36, 1-cyclopropyl-8-(3-hydroxypropoxy) -5-isopropyl-9-methoxy-2-oxo-5H-chromeno[4,3-b]pyridine-3-carboxylic acid], with 1 to 20 nM. Then `CCOc1cc2c(cc1OC)-c1c(cc(C(=O)O)c(=O)n1C1CC1)C(C(C)C)O2` (centres unmarked) [Compound 37, 1-cyclopropyl-8-ethoxy-5-isopropyl-9-methoxy-2-oxo-5H-chromeno[4,3-b]pyridine-3-carboxylic acid], with 1 to 20 nM; and `COc1cc2c(cc1OCC(C)C)OC(C(C)C)c1cc(C(=O)O)c(=O)n(C3CC3)c1-2` (centres unmarked) [Compound 38, 1-cyclopropyl-8-isobutoxy-5-isopropyl-9-methoxy-2-oxo-5H-chromeno[4,3-b]pyridine-3-carboxylic acid], with 1 to 20 nM. Next, `COc1cc2c(cc1OC(C)C)OC(C(C)C)c1cc(C(=O)O)c(=O)n(C3CC3)c1-2` (centres unmarked) [Compound 39, 1-cyclopropyl-8-isopropoxy-5-isopropyl-9-methoxy-2-oxo-5H-chromeno[4,3-b]pyridine-3-carboxylic acid]: 1 to 20 nM; `CCCOc1cc2c(cc1OC)-c1c(cc(C(=O)O)c(=O)n1C1CC1)C(C(C)C)O2` (centres unmarked) [Compound 40, 1-cyclopropyl-5-isopropyl-9-methoxy-2-oxo-8-propoxy-5H-chromeno[4,3-b]pyridine-3-carboxylic acid]: 1 to 20 nM. Compound `COc1cc2c(cc1OCc1ccccc1)OC(C(C)C)c1cc(C(=O)O)c(=O)n(C3CC3)c1-2` (centres unmarked) [Compound 41, 8-benzyloxy-1-cyclopropyl-5-isopropyl-9-methoxy-2-oxo-5H-chromeno[4,3-b]pyridine-3-carboxylic acid] showed a 50% inhibitory concentration (IC50) of over 100 nM. Then `CCOCCOc1cc2c(cc1OC)-c1c(cc(C(=O)O)c(=O)n1C1CC1)C(C(C)C)O2` (centres unmarked) [Compound 42, 1-cyclopropyl-8-(2-ethoxyethoxy)-5-isopropyl-9-methoxy-2-oxo-5H-chromeno[4,3-b]pyridine-3-carboxylic acid], with 1 to 20 nM; and `COc1cc2c(cc1OCC1(C#N)CCC1)OC(C(C)C)c1cc(C(=O)O)c(=O)n(C3CC3)c1-2` (centres unmarked) [Compound 43, 8-[(1-cyanocyclobutyl)methoxy]-1-cyclopropyl-5-isopropyl-9-methoxy-2-oxo-5H-chromeno[4,3-b]pyridine-3-carboxylic acid], with 1 to 20 nM.

`COCCCOc1cc2c(cc1F)-c1c(cc(C(=O)O)c(=O)n1C1CC1)[C@@H](C(C)C)O2` [Compound 45, (5R)-1-cyclopropyl-9-fluoro-5-isopropyl-8-(3-methoxypropoxy)-2-oxo-5H-chromeno[4,3-b]pyridine-3-carboxylic acid]: the IC50 was over 100 nM.
